The text below walks through data of article PMC8449414, “Rational design of ASCT2 inhibitors using an integrated experimental-computational approach” (Proceedings of the National Academy of Sciences of the …, 2021).

This assay deals with T1, hASCT2 (Homo sapiens, UniProt Q15758).
T1 construct: expressed in transfected cells; host or cells: HEK293 (ATCC CRL-11268), transient transfection
T1 sequence (Q15758 1-541): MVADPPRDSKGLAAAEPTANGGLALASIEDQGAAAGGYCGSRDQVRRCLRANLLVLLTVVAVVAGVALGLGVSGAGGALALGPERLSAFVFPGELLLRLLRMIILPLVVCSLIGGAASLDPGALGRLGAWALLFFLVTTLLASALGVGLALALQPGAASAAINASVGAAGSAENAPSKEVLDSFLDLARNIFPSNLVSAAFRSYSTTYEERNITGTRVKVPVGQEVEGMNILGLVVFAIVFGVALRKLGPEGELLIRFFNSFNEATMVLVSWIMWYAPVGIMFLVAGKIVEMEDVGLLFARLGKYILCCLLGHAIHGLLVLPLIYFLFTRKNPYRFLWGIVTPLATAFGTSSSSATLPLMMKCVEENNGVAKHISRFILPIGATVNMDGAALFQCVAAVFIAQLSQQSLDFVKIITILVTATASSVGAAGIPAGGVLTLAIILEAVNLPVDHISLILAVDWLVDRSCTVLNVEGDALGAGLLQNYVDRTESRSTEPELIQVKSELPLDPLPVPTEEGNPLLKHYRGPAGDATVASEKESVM
Description: Glutamine transport assay in proteoliposomes reconstituted with purified hASCT2. The class given is biochemical. Conditions: in the presence of 5 µM glutamine; read-out: IC50, inhibition of glutamine uptake in proteoliposomes. The text has this:
Our computational models predicted Lc-BPE as a competitive inhibitor targeting the substrate binding site. To test this prediction, we performed electrophysiological competition experiments in the presence of varying concentrations of the substrate, L-alanine. The results were consistent with a competitive inhibition mechanism (SI Appendix, Fig. S4). At low inhibitor concentrations, the alanine-induced currents were inward, as expected from transported substrates, indicative of the inability of Lc-BPE to displace alanine from the binding site. However, as inhibitor concentration increased, the currents became outwardly directed in a dose-dependent manner, which marked the displacement of alanine by the inhibitor (SI Appendix, Fig. S5). The apparent Ki increased as a function of the alanine concentration, as anticipated for a competitive mechanism (SI Appendix, Figs. S5 and S6). […] We further tested the inhibitory activity of Lc-BPE in a cell-free transport assay in proteoliposomes, where purified and reconstituted hASCT2 catalyzes the exchange of intracellular nonlabeled L-glutamine with extracellular radioactive-labeled L-glutamine. We observed a dose-dependent inhibition of glutamine transport when Lc-BPE was added externally, which confirms that this compound is an hASCT2 inhibitor with a half-maximum inhibitory concentration (IC50) value of 20 µM in the presence of 5 µM glutamine (Fig. 2D).
Dilutions to working concentrations were made using external buffer. The highest […]
cells. For rASCT2, hASCT2 and hASCT1, external buffer contained 140 mM NaCl, 2 mM MgCl2, 2 mM CaCl2, and 10 mM HEPES, pH 7.40 while internal pipette solution comprised of 130 mM NaSCN, 2 mM MgCl2, 10 mM EGTA, 10 mM HEPES and 10mM alanine, pH 7.40. […] Current s traces were recorded using an Adams and List EPC7 amplifier and digitized using a Molecular Devices Digidata A/D converter.
Data analysis was performed as described previously 46. Linear and nonlinear curve fitting of the experimental data were analyzed using MicroCal Origin software. […]
Regarding `O=C(O[C@H]1CN[C@H](C(=O)O)C1)c1ccc(C(=O)c2ccccc2)cc1` [ERA-35], the IC50 is 411 µM. For `N[C@@H](COC(=O)c1ccc(NC(=O)c2ccccc2)cc1)C(=O)O` [ERA-21] the value was 56 µM; for `O=C(O[C@@H]1CN[C@H](C(=O)O)C1)c1ccc(-c2ccccc2)cc1` [Lc-BPE, L-cis hydroxyproline biphenyl ester], 20 µM.
